{"source": "paper PMC6268188", "about": "“Comparative Studies of the (Anti) Mutagenicity of Baccharis dracunculifolia and Artepillin C by the Bacterial Reverse Mutation Test” (Molecules, 2012)", "key": {"[1]": {"test_system": "S. typhimurium TA98"}, "[2]": {"test_system": "S. typhimurium TA100"}}, "note": "Like-named read-outs stand apart in the source and are kept apart here."}
{"smiles": "CC(C)=CCc1cc(/C=C/C(=O)O)cc(CC=C(C)C)c1O", "note": "[ArtC, 3-{4-hydroxy-3,5-di(3-methyl-2-butenyl)phenyl}-2(E)-propenoic acid]", "values": [{"measurement": "MI (mutagenicity index)", "setting": "[1]; 0.69 µg/plate, TA 98, + S9", "result": 0.9}, {"measurement": "Number of revertants (M ± SD)/ plate", "setting": "[1]; 0.69 µg/plate, TA 98, + S9", "result": "28 ± 3", "unit": "revertants/plate"}, {"measurement": "MI (mutagenicity index)", "setting": "[1]; 0.69 µg/plate, TA 98, − S9", "result": 1.0}, {"measurement": "Number of revertants (M ± SD)/ plate", "setting": "[1]; 0.69 µg/plate, TA 98, − S9", "result": "21 ± 3", "unit": "revertants/plate"}, {"measurement": "MI (mutagenicity index)", "setting": "[1]; 1.37 µg/plate, TA 98, + S9", "result": 1.1}, {"measurement": "Number of revertants (M ± SD)/ plate", "setting": "[1]; 1.37 µg/plate, TA 98, + S9", "result": "32 ± 1", "unit": "revertants/plate"}, {"measurement": "MI (mutagenicity index)", "setting": "[1]; 1.37 µg/plate, TA 98, − S9", "result": 1.2}, {"measurement": "Number of revertants (M ± SD)/ plate", "setting": "[1]; 1.37 µg/plate, TA 98, − S9", "result": "24 ± 4", "unit": "revertants/plate"}, {"measurement": "MI (mutagenicity index)", "setting": "[1]; 2.75 µg/plate, TA 98, + S9", "result": 1.0}, {"measurement": "Number of revertants (M ± SD)/ plate", "setting": "[1]; 2.75 µg/plate, TA 98, + S9", "result": "29 ± 3", "unit": "revertants/plate"}, {"measurement": "MI (mutagenicity index)", "setting": "[1]; 2.75 µg/plate, TA 98, − S9", "result": 1.4}, {"measurement": "Number of revertants (M ± SD)/ plate", "setting": "[1]; 2.75 µg/plate, TA 98, − S9", "result": "28 ± 5", "unit": "revertants/plate"}, {"measurement": "MI (mutagenicity index)", "setting": "[1]; 5.49 µg/plate, TA 98, + S9", "result": 1.1}, {"measurement": "Number of revertants (M ± SD)/ plate", "setting": "[1]; 5.49 µg/plate, TA 98, + S9", "result": "32 ± 2", "unit": "revertants/plate"}, {"measurement": "MI (mutagenicity index)", "setting": "[1]; 5.49 µg/plate, TA 98, − S9", "result": 1.5}, {"measurement": "Number of revertants (M ± SD)/ plate", "setting": "[1]; 5.49 µg/plate, TA 98, − S9", "result": "29 ± 1", "unit": "revertants/plate"}, {"measurement": "MI (mutagenicity index)", "setting": "[2]; 0.69 µg/plate, TA 100, + S9", "result": 1.0}, {"measurement": "Number of revertants (M ± SD)/ plate", "setting": "[2]; 0.69 µg/plate, TA 100, + S9", "result": "171 ± 1", "unit": "revertants/plate"}, {"measurement": "MI (mutagenicity index)", "setting": "[2]; 0.69 µg/plate, TA 100, − S9", "result": 1.2}, {"measurement": "Number of revertants (M ± SD)/ plate", "setting": "[2]; 0.69 µg/plate, TA 100, − S9", "result": "179 ± 4", "unit": "revertants/plate"}, {"measurement": "MI (mutagenicity index)", "setting": "[2]; 1.37 µg/plate, TA 100, + S9", "result": 1.0}, {"measurement": "Number of revertants (M ± SD)/ plate", "setting": "[2]; 1.37 µg/plate, TA 100, + S9", "result": "171 ± 2", "unit": "revertants/plate"}, {"measurement": "MI (mutagenicity index)", "setting": "[2]; 1.37 µg/plate, TA 100, − S9", "result": 1.1}, {"measurement": "Number of revertants (M ± SD)/ plate", "setting": "[2]; 1.37 µg/plate, TA 100, − S9", "result": "174 ± 4", "unit": "revertants/plate"}, {"measurement": "MI (mutagenicity index)", "setting": "[2]; 2.75 µg/plate, TA 100, + S9", "result": 0.9}, {"measurement": "Number of revertants (M ± SD)/ plate", "setting": "[2]; 2.75 µg/plate, TA 100, + S9", "result": "144 ± 2", "unit": "revertants/plate"}, {"measurement": "MI (mutagenicity index)", "setting": "[2]; 2.75 µg/plate, TA 100, − S9", "result": 1.1}, {"measurement": "Number of revertants (M ± SD)/ plate", "setting": "[2]; 2.75 µg/plate, TA 100, − S9", "result": "169 ± 6", "unit": "revertants/plate"}, {"measurement": "MI (mutagenicity index)", "setting": "[2]; 5.49 µg/plate, TA 100, + S9", "result": 0.9}, {"measurement": "Number of revertants (M ± SD)/ plate", "setting": "[2]; 5.49 µg/plate, TA 100, + S9", "result": "153 ± 2", "unit": "revertants/plate"}, {"measurement": "MI (mutagenicity index)", "setting": "[2]; 5.49 µg/plate, TA 100, − S9", "result": 1.0}, {"measurement": "Number of revertants (M ± SD)/ plate", "setting": "[2]; 5.49 µg/plate, TA 100, − S9", "result": "158 ± 7", "unit": "revertants/plate"}]}
